Measured values published in PubChem BioAssay (NCI).
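Dose response: 5 concentrations. Exposure: 48 h. Format: 96-well plates. Endpoint: linear interpolation; highest concentration if not reached. GI50 marks 50% less growth. TGI: total growth inhibition.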

Legend:
Assay in all cases: inhibition of tumour cell growth, NCI panel, 48 h
ACHN renal = test system: ACHN renal
HL-60(TB) leukemia = test system: HL-60(TB) leukemia
NCI-H460 lung = test system: NCI-H460 lung
BT-549 breast = test system: BT-549 breast
SF-295 CNS = test system: SF-295 CNS
786-0 renal = test system: 786-0 renal
LOX IMVI melanoma = test system: LOX IMVI melanoma
MCF7 breast = test system: MCF7 breast
CAKI-1 renal = test system: CAKI-1 renal
K-562 leukemia = test system: K-562 leukemia
HT29 colon = test system: HT29 colon
SK-MEL-5 melanoma = test system: SK-MEL-5 melanoma
OVCAR-4 ovarian = test system: OVCAR-4 ovarian
SF-268 CNS = test system: SF-268 CNS
SR leukemia = test system: SR leukemia
UO-31 renal = test system: UO-31 renal
OVCAR-5 ovarian = test system: OVCAR-5 ovarian
HCT-116 colon = test system: HCT-116 colon
SK-MEL-28 melanoma = test system: SK-MEL-28 melanoma
M14 melanoma = test system: M14 melanoma
TK-10 renal = test system: TK-10 renal
OVCAR-3 ovarian = test system: OVCAR-3 ovarian
SK-MEL-2 melanoma = test system: SK-MEL-2 melanoma
A498 renal = test system: A498 renal
SF-539 CNS = test system: SF-539 CNS
NCI-H226 lung = test system: NCI-H226 lung
IGROV1 ovarian = test system: IGROV1 ovarian
HCC-2998 colon = test system: HCC-2998 colon
UACC-257 melanoma = test system: UACC-257 melanoma
HS 578T breast = test system: HS 578T breast
OVCAR-8 ovarian = test system: OVCAR-8 ovarian
PC-3 prostate = test system: PC-3 prostate
UACC-62 melanoma = test system: UACC-62 melanoma
A549 NSCLC = test system: A549 NSCLC
COLO 205 colon = test system: COLO 205 colon
EKVX NSCLC = test system: EKVX NSCLC
RXF 393 renal = test system: RXF 393 renal
HOP-92 NSCLC = test system: HOP-92 NSCLC
CCRF-CEM leukemia = test system: CCRF-CEM leukemia
MOLT-4 leukemia = test system: MOLT-4 leukemia
NCI/ADR-RES ovarian = test system: NCI/ADR-RES ovarian
RPMI-8226 leukemia = test system: RPMI-8226 leukemia
MALME-3M melanoma = test system: MALME-3M melanoma
U251 CNS = test system: U251 CNS
T-47D breast = test system: T-47D breast
SW-620 colon = test system: SW-620 colon
HCT-15 colon = test system: HCT-15 colon
SNB-75 CNS = test system: SNB-75 CNS
MDA-MB-231 breast = test system: MDA-MB-231 breast
SK-OV-3 ovarian = test system: SK-OV-3 ovarian
NCI-H23 lung = test system: NCI-H23 lung
NCI-H522 lung = test system: NCI-H522 lung
HOP-62 NSCLC = test system: HOP-62 NSCLC
SNB-19 CNS = test system: SNB-19 CNS
KM12 colon = test system: KM12 colon
SN12C renal = test system: SN12C renal
DU-145 prostate = test system: DU-145 prostate
MDA-MB-435 = test system: MDA-MB-435

Work on `Cc1cc(NC(=O)c2ccc(NS(=O)(=O)CCO)cc2N2CCC3(CC2)CC3)nc(N2CCC(F)(F)CC2)n1` yielded a GI50 (ACHN renal) of 13.5 µM, a TGI (ACHN renal) of 26.4 µM and a GI50 (HL-60(TB) leukemia) of 19.4 µM. The TGI (HL-60(TB) leukemia) was > 57.1 µM, the GI50 (NCI-H460 lung) was 12.6 µM and the TGI (NCI-H460 lung) was 26.8 µM. It also gave a GI50 (BT-549 breast) of 0.486 µM, a TGI (BT-549 breast) of 17.9 µM and a GI50 (SF-295 CNS) of 12.3 µM. For the same compound, the TGI (SF-295 CNS) was 27.3 µM, the GI50 (786-0 renal) was 14.9 µM and the TGI (786-0 renal) was 30.6 µM. The GI50 (LOX IMVI melanoma) was 7.05 µM, the TGI (LOX IMVI melanoma) was 27.3 µM and the GI50 (MCF7 breast) was 8.33 µM. It also gave a TGI (MCF7 breast) of 25.2 µM, a GI50 (CAKI-1 renal) of 10.9 µM and a TGI (CAKI-1 renal) of 23.2 µM. The GI50 (K-562 leukemia) was 3.59 µM, the TGI (K-562 leukemia) was > 51.4 µM and the GI50 (HT29 colon) was 0.0755 µM. It also gave a TGI (HT29 colon) of 14.2 µM, a GI50 (SK-MEL-5 melanoma) of 2.7 µM and a TGI (SK-MEL-5 melanoma) of 19.7 µM. It also gave a GI50 (OVCAR-4 ovarian) of 14.2 µM, a TGI (OVCAR-4 ovarian) of 27.7 µM and a GI50 (SF-268 CNS) of 13.1 µM. For the same compound, the TGI (SF-268 CNS) was 29 µM, the GI50 (SR leukemia) was 1.68 µM and the TGI (SR leukemia) was 25.3 µM. The GI50 (UO-31 renal) was 11.4 µM, the TGI (UO-31 renal) was 23.8 µM and the GI50 (OVCAR-5 ovarian) was 11.4 µM. The TGI (OVCAR-5 ovarian) was 23.6 µM, the GI50 (HCT-116 colon) was 11.7 µM and the TGI (HCT-116 colon) was 26.8 µM. For the same compound, the GI50 (SK-MEL-28 melanoma) was 16.8 µM, the TGI (SK-MEL-28 melanoma) was 30.7 µM and the GI50 (M14 melanoma) was 14.3 µM. It also gave a TGI (M14 melanoma) of 28.9 µM, a GI50 (TK-10 renal) of 17.7 µM and a TGI (TK-10 renal) of 32.6 µM. The GI50 (OVCAR-3 ovarian) was 0.0365 µM, the TGI (OVCAR-3 ovarian) was 2.49 µM and the GI50 (SK-MEL-2 melanoma) was 15.8 µM. For the same compound, the TGI (SK-MEL-2 melanoma) was 31.1 µM, the GI50 (A498 renal) was 16.7 µM and the TGI (A498 renal) was 31 µM. It also gave a GI50 (SF-539 CNS) of 0.0776 µM, a TGI (SF-539 CNS) of 16 µM and a GI50 (NCI-H226 lung) of 2.09 µM. It also gave a TGI (NCI-H226 lung) of 29.3 µM, a GI50 (IGROV1 ovarian) of 16 µM and a TGI (IGROV1 ovarian) of 30.6 µM. It also gave a GI50 (HCC-2998 colon) of 1.53 µM, a TGI (HCC-2998 colon) of 17.8 µM and a GI50 (UACC-257 melanoma) of 16.8 µM. It also gave a TGI (UACC-257 melanoma) of 32 µM, a GI50 (HS 578T breast) of 0.746 µM and a TGI (HS 578T breast) of 21.9 µM. For the same compound, the GI50 (OVCAR-8 ovarian) was 0.114 µM, the TGI (OVCAR-8 ovarian) was 24.4 µM and the GI50 (PC-3 prostate) was 7.46 µM. For the same compound, the TGI (PC-3 prostate) was 23.6 µM, the GI50 (UACC-62 melanoma) was 12.3 µM and the TGI (UACC-62 melanoma) was 24.9 µM. The GI50 (A549 NSCLC) was 14.2 µM, the TGI (A549 NSCLC) was 30.4 µM and the GI50 (COLO 205 colon) was 11 µM. It also gave a TGI (COLO 205 colon) of 28.4 µM, a GI50 (EKVX NSCLC) of 14.2 µM and a TGI (EKVX NSCLC) of 28.8 µM. For the same compound, the GI50 (RXF 393 renal) was 0.26 µM, the TGI (RXF 393 renal) was 6.58 µM and the GI50 (HOP-92 NSCLC) was 14.5 µM. The TGI (HOP-92 NSCLC) was 29.6 µM, the GI50 (CCRF-CEM leukemia) was 10 µM and the TGI (CCRF-CEM leukemia) was > 66 µM. The GI50 (MOLT-4 leukemia) was 12.1 µM, the TGI (MOLT-4 leukemia) was 33.1 µM and the GI50 (NCI/ADR-RES ovarian) was 0.428 µM. The TGI (NCI/ADR-RES ovarian) was 16.1 µM, the GI50 (RPMI-8226 leukemia) was 9.74 µM and the TGI (RPMI-8226 leukemia) was 33.4 µM. It also gave a GI50 (MALME-3M melanoma) of 13.9 µM, a TGI (MALME-3M melanoma) of 27.8 µM and a GI50 (U251 CNS) of 1.5 µM. The TGI (U251 CNS) was 22.7 µM, the GI50 (T-47D breast) was 12.5 µM and the TGI (T-47D breast) was 31.8 µM. It also gave a GI50 (SW-620 colon) of 13.1 µM, a TGI (SW-620 colon) of 27.1 µM and a GI50 (HCT-15 colon) of 4.71 µM. For the same compound, the TGI (HCT-15 colon) was 20.5 µM, the GI50 (SNB-75 CNS) was 1.15 µM and the TGI (SNB-75 CNS) was 15.6 µM. For the same compound, the GI50 (MDA-MB-231 breast) was 0.188 µM, the TGI (MDA-MB-231 breast) was 17.6 µM and the GI50 (SK-OV-3 ovarian) was 11.1 µM. It also gave a TGI (SK-OV-3 ovarian) of 26 µM, a GI50 (NCI-H23 lung) of 12.6 µM and a TGI (NCI-H23 lung) of 26.6 µM. The GI50 (NCI-H522 lung) was 12.9 µM, the TGI (NCI-H522 lung) was 27.3 µM and the GI50 (HOP-62 NSCLC) was 13.7 µM. For the same compound, the TGI (HOP-62 NSCLC) was 30.4 µM, the GI50 (SNB-19 CNS) was 2.03 µM and the TGI (SNB-19 CNS) was 21.6 µM. For the same compound, the GI50 (KM12 colon) was 1.7 µM, the TGI (KM12 colon) was 16.9 µM and the GI50 (SN12C renal) was 11.7 µM. For the same compound, the TGI (SN12C renal) was 24.4 µM, the GI50 (DU-145 prostate) was 0.0531 µM and the TGI (DU-145 prostate) was 15.8 µM. It also gave a GI50 (MDA-MB-435) of 0.903 µM and a TGI (MDA-MB-435) of 18.5 µM.
